# From patent US20250177412A1, “SMALL-MOLECULE INHIBITORS TARGETING THE BOB1/OCT1 INTERFACE” (NANTES UNIVERSITE, priority 2022, published 2025)
# What was measured:
# NIH3T3 cells = experiment: MTT assay; type: cell-based; conditions: data not shown
# [1] = test system: mouse embryonic fibroblasts (MEFs); experiment: MTT assay; type: cell-based; conditions: data not shown
# PBMCs = experiment: T cell recall assay (qPCR and intracellular staining); type: cell-based, human
# Method: Total PBMCs were plated into 96-well round-bottom plates at 0.5×10^6 cells/well and were stimulated with anti-CD3/CD28 Dynabeads (Gibco Life Technologies) at a bead/cell ratio of 0.2:1 in the presence of compound 005 (10 μM) or vehicle (DMSO) for 6 hours to induce polyclonal primary responses. To induce recall responses, cells were stimulated with beads for two days, allowed to rest for eight days in medium supplemented with IL-2 (10 U/mL) and re-stimulated with anti-CD3/CD28 beads for the last 6 hours in the presence of compound 005 ([…]) or vehicle. Expression of Th1-, Th2-, Th17-, and Treg-associated cytokines and transcription factors was assessed by qPCR. For intracellular staining, cells were re-stimulated for 10 hours with anti-CD3/CD28 beads, and Brefeldin A (10 μg/mL, Sigma) was added to the medium 4 hours after the start of re-stimulation. Dead cells were excluded using the LIVE/DEAD® Fixable Aqua Dead Cell Stain Kit (Life Technologies). Subsequently, cells were surface-stained with CD3-BUV395, CD4-BUV737, CD8-Violet650 (all three from BDHorizon), and CD161-PE-Cy7 (from Biolegend) at 4° C. for 30 min, followed by incubation with Fixation/Permeabilization working solution (eBioscience), washed with Permeabilization Buffer and stained with IL-17A-PE and IFNγ-BV711 (both from BD Biosciences). Cells were resuspended in ice-cold FACS buffer (0.5% BSA, 2 mM EDTA and 50 U/mL penicillin/streptomycin in PBS). Flow cytometry data were collected on BD FACSCelesta™ and analyzed using FlowJo™ cell analysis software (FlowJo, LLC).
# Total RNA was extracted from PBMCs using the RNeasy Micro Kit (Qiagen) according to the manufacturer's protocol. RNA was processed for cDNA synthesis (Fermentas) and analyzed by qPCR with TaqMan gene expression assays for IFNG (Hs00989291_m1), IL-2 (Hs00174114_m1), TNF (Hs00174128_m1), TBX21 (Hs00203436_m1), IL-4 (Hs00174122_m1), GATA3 (Hs00231122_m1), IL-17A (Hs00174383_m1), IL-17F (Hs00369400_m1), IL-21 (Hs00222327_m1), IL-22 (Hs01574154_m1), RORC (Hs01076122_m1), IL-10 (Hs00961622_m1), FOXP3 (Hs01085834_m1), POU2AF1 (Hs01573371_m1) (Thermofisher) using Real-Time PCR QuantStudio3 PCR System (Applied Biosystems). Expressions of all genes were normalized to the expression of GAPDH (4310884E) as housekeeping gene and presented as fold change relative to the reference sample.
# [2] = test system: BOB1/OCT1-mediated transcription; experiment: Luciferase reporter assay (transient transfection, 6xPORE-luc); type: cell-based, human
# Method: FIGS. 1A-C are a combination of graphs showing that compound 005 inhibits BOB1/OCT1-mediated transcription in vitro. HEC293Ea1 cells, known to express endogenous OCT1, were co-transfected with […] reporter, pEV-OBF1 (BOB1) effector, and pCMV-β-gal calibrator plasmids. Luciferase and β-galactosidase activities were measured 48 hours after transfection. The 100% luciferase activity was set as activity in presence of vehicle (10 μM DMSO). […] All experiments are performed at least in triplicates. Bars indicate the mean±SEM. * P<0.05, ** P<0.01, *** P<0.001, **** P<0.0001.
# The HEK293E1a cells were seeded at density 1.2×10^4 per well on 48-well plate in DMEM medium containing 10% fetal calf serum. After 24 hours cells were transfected with plasmid mix (300 ng/well) containing specified amounts of the p6×PORE-luc reporter, pEV-OBF1 and pCG-Oct1 effector, pBluescript II KS+ carrier, and pCMV-βgal (for standardization) as previously described. The transfections were carried out in three biological replicates, using Polyethylenimine (PEI 25K, Polysciences Inc.) at the ratio 2:1 to DNA. After 48 hours, cells were washed with PBS, lysed, and measured for luciferase activity, using the Bright-Glo luciferase assay system (Promega), and for β-galactosidase activity in a standard assay.
# BOB1 has been described as a coactivator acting in cooperation with the POU-domain proteins OCT1 and OCT2 bound to distinct DNA-motifs either in monomeric or dimeric configurations. […] As an initial functional assay, we examined the ability of the compounds according to the present invention to affect BOB1-OCT1-PORE-mediated transcriptional activation in transient transfection luciferase assay. To this end, we made use of previously generated 6×PORE-luc and reporter plasmid, in which hexamers of the PORE were cloned upstream of the thymidine kinase (tk) minimal promoter and luciferase gene. […] Furthermore, the addition of a plasmid expressing exogenous OCT1 exerted an inhibitory effect on both basal and BOB1-mediated transcription (data not shown). This observation is likely due to the fact that HEK293 cells, like all other mammalian cell types, express OCT1, and further addition of exogenous OCT1 in these cells shifts the BOB1/OCT1 equilibrium out of optimal range, resulting in squelching effect, and in our experimental setup, in about 3-fold stimulation, as compared to that by endogenous OCT1 alone (FIG. 1A). […] Compound 005 was selected for further detailed investigation.
compound,measurement,setting,value
"Cc1ccc(NC(=O)C2CN(c3nc(NCCCc4ccc(F)cc4)nc(NCCC(=O)O)n3)c3ccccc3O2)cc1Cl (centres unmarked) [compound 005, 3-((4-(2-((3-chloro-4-methylphenyl)carbamoyl)-2,3-dihydro-4H-benzo[b][1,4]oxazin-4-yl)-6-((3-(4-fluorophenyl)propyl)amino)-1,3,5-triazin-2-yl)amino)propanoic acid]",concentration showing toxicity,NIH3T3 cells,≥ 80 µM
same,concentration showing toxicity,[1],≥ 80 µM
same,TNF expression,"PBMCs; initial activation, 6 hours-stimulated cells, 10 μM, data not shown",significant decrease
same,"IL-17A mRNA, median percentage decrease",PBMCs; re-stimulated (recall) cells,43%
same,"IL-17F mRNA, median percentage decrease",PBMCs; re-stimulated (recall) cells,27%
same,"expression of IL-17A by CD4+ T cells (protein, intracellular staining)",PBMCs; re-stimulated cells,suppressed
same,BOB1/OCT1-driven transcription (relative luciferase activity),[2]; 10 μM in the culture medium,significantly attenuated
same,suppression of transcriptional activation,[2]; concentration range from 0.5 to 40 μM,dose-dependent manner
